# Source: patent publication US11691969B2, “Pyridazinones as PARP7 inhibtors” (Ribon Therapeutics, Inc., priority 2019, dated 2023)
# Biological target: PARP7 (Homo sapiens (Human), UniProt Q7Z3E1)
# Assay: TR-FRET assay: displacement of biotinylated Probe A from the TIPARP active site (Enzymatic Assay for Inhibition of PARP7)
# Format: binding
# Details: TIPARP 6 nM, Probe A 2 nM, 25° C.
# Procedure, shortened: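 6 nM His-tagged TIPARP and 2 nM biotinylated Probe A preincubated with compound 30 min at 25 °C in HEPES pH 8 buffer, then 4 nM ULight-anti-6×His and 0.25 nM Eu-streptavidin added for 30 min more. 665/615 nm ratio normalised to DMSO and 100 μM reference inhibitor controls; IC50 from 4-parameter fit.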
# Chain of PARP7 (Q7Z3E1 whole entry): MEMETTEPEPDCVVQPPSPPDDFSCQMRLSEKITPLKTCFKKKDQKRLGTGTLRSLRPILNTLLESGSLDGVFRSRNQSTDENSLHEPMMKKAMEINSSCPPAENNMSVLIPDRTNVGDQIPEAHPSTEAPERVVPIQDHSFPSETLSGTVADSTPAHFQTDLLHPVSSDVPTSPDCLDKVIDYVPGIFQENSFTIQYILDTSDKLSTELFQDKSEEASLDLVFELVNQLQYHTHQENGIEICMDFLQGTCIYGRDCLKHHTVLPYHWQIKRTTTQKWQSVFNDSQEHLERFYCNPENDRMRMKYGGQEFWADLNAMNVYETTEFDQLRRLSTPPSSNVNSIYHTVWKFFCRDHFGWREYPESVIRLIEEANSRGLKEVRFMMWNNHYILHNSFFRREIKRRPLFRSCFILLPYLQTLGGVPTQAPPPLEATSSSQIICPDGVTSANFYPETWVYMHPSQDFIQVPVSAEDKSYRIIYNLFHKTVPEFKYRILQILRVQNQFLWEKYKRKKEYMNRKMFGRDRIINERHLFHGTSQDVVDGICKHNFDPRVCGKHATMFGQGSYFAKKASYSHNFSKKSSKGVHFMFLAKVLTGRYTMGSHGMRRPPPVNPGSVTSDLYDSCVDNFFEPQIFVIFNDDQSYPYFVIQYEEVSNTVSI
row,IC50 [nM],SMILES
1,< 100,"C[C@@H](CO[C@@H]1CCN(C2CCN(c3ncc(F)cn3)CC2)C1=O)Nc1cn[nH]c(=O)c1C(F)(F)F [Example 42, 5-(((S)-1-(((R)-1-(1-(5-fluoropyrimidin-2-yl)piperidin-4-yl)-2-oxopyrrolidin-3-yl)oxy)propan-2-yl)amino)-4-(trifluoromethyl)pyridazin-3(2H)-one]"
2,100 to 1000,"COC[C@@H](CO[C@H]1CCN(C2CCN(c3ncc(C(F)(F)F)cn3)CC2)C1=O)Nc1cn[nH]c(=O)c1C(F)(F)F [Example 19A, 5-(((S)-1-methoxy-3-(((S)-2-oxo-1-(1-(5-(trifluoromethyl)pyrimidin-2-yl)piperidin-4-yl)pyrrolidin-3-yl)oxy)propan-2-yl)amino)-4-(trifluoromethyl)pyridazin-3(2H)-one]"
3,100 to 1000,"COC[C@@H](CO[C@H]1CCN(C2CCN(c3cnc(C(F)(F)F)cn3)CC2)C1=O)Nc1cn[nH]c(=O)c1C(F)(F)F [Example 18A, 5-(((S)-1-methoxy-3-(((S)-2-oxo-1-(1-(5-(trifluoromethyl)pyrazin-2-yl)piperidin-4-yl)pyrrolidin-3-yl)oxy)propan-2-yl)amino)-4-(trifluoromethyl)pyridazin-3(2H)-one]"
4,< 100,"C[C@@H](COCC(=O)N(C)C1CCN(c2ncc(C(F)(F)F)cn2)CC1)Oc1cn[nH]c(=O)c1C(F)(F)F [Example 25, (S)-N-methyl-2-(2-((6-oxo-5-(trifluoromethyl)-1,6-dihydropyridazin-4-yl)oxy)propoxy)-N-(1-(5-(trifluoromethyl)pyrimidin-2-yl)piperidin-4-yl)acetamide]"
5,< 100,"C[C@@H](COCC(=O)N(C)C1CCN(c2cnc(C(F)(F)F)cn2)CC1)Nc1cn[nH]c(=O)c1C(F)(F)F [Example 4, (S)—N-methyl-2-(2-(6-oxo-5-(trifluoromethyl)-1,6-dihydropyridazin-4-ylamino)propoxy)-N-(1-(5-(trifluoromethyl)pyrazin-2-yl)piperidin-4-yl)acetamide]"
6,< 100,"C[C@@H](COCC(=O)N(C)C1CN(c2ncc(C(F)(F)F)cn2)C1)Nc1cn[nH]c(=O)c1C(F)(F)F [Example 5, (S)—N-methyl-2-(2-(6-oxo-5-(trifluoromethyl)-1,6-dihydropyridazin-4-ylamino)propoxy)-N-(1-(5-(trifluoromethyl)pyrimidin-2-yl)azetidin-3-yl)acetamide]"
7,< 100,"C[C@@H](COCC(=O)N[C@H]1CCN(c2ncc(C(F)(F)F)cn2)C[C@@H]1O)Nc1cn[nH]c(=O)c1C(F)(F)F (single isomer, unassigned) [Example 33B]"
8,< 100,"COC[C@@H](CO[C@@H]1CCN(C2CCN(c3ncc(C)cn3)CC2)C1=O)Nc1cn[nH]c(=O)c1C(F)(F)F [Example 53, 5-(((S)-1-methoxy-3-(((R)-1-(1-(5-methylpyrimidin-2-yl)piperidin-4-yl)-2-oxopyrrolidin-3-yl)oxy)propan-2-yl)amino)-4-(trifluoromethyl)pyridazin-3(2H)-one]"
9,< 100,"C[C@@H](COCC(=O)N(C)C1CCN(c2ncc(C(F)(F)F)cn2)CC1)Nc1cn[nH]c(=O)c1C(F)(F)F [Example 2, (S)—N-methyl-2-(2-(6-oxo-5-(trifluoromethyl)-1,6-dihydropyridazin-4-ylamino)propoxy)-N-(1-(5-(trifluoromethyl)pyrimidin-2-yl)piperidin-4-yl)acetamide]"
10,< 100,"C[C@@H](COCC(=O)NC1CCN(c2ncc(C(F)(F)F)cn2)CC1)Nc1cn[nH]c(=O)c1C(F)(F)F [Example 1, (S)-2-(2-(6-oxo-5-(trifluoromethyl)-1,6-dihydropyridazin-4-ylamino)propoxy)-N-(1-(5-(trifluoromethyl)pyrimidin-2-yl)piperidin-4-yl)acetamide]"
11,< 100,"C[C@@H](CO[C@H]1CCN(C2CCN(c3ncc(C(F)(F)F)cn3)CC2)C1=O)Oc1cn[nH]c(=O)c1C(F)(F)F [Example 20A, 5-(((S)-1-(((S)-2-oxo-1-(1-(5-(trifluoromethyl)pyrimidin-2-yl)piperidin-4-yl)pyrrolidin-3-yl)oxy)propan-2-yl)oxy)-4-(trifluoromethyl)pyridazin-3(2H)-one]"
12,< 100,"C[C@@H](CO[C@H]1C(=O)N(C2CCN(c3ncc(C(F)(F)F)cn3)CC2)CC1(C)C)Nc1cn[nH]c(=O)c1C(F)(F)F [Example 35B, 5-(((S)-1-(((R)-4,4-dimethyl-2-oxo-1-(1-(5-(trifluoromethyl)pyrimidin-2-yl)piperidin-4-yl)pyrrolidin-3-yl)oxy)propan-2-yl)amino)-4-(trifluoromethyl)pyridazin-3(2H)-one]"
13,< 100,"C[C@@H](CO[C@@H]1CCN([C@H]2[C@@H]3CN(c4ncc(C(F)(F)F)cn4)C[C@@H]32)C1=O)Nc1cn[nH]c(=O)c1C(F)(F)F [Example 43, 5-(((S)-1-(((R)-2-oxo-1-((1R,5S,6s)-3-(5-(trifluoromethyl)pyrimidin-2-yl)-3-azabicyclo[3.1.0]hexan-6-yl)pyrrolidin-3-yl)oxy)propan-2-yl)amino)-4-(trifluoromethyl)pyridazin-3(2H)-one]"
14,< 100,"C[C@@H](CO[C@@H]1CCN([C@H]2CCN(c3ncc(C(F)(F)F)cn3)C[C@@H]2O)C1=O)Nc1cn[nH]c(=O)c1C(F)(F)F [Example 58, 5-(((S)-1-(((R)-1-((3S,4S)-3-hydroxy-1-(5-(trifluoromethyl)pyrimidin-2-yl)piperidin-4-yl)-2-oxopyrrolidin-3-yl)oxy)propan-2-yl)amino)-4-(trifluoromethyl)pyridazin-3(2H)-one]"
15,< 100,"C[C@@H](CO[C@@H]1CCN(C2CCN(c3cnc(C(F)(F)F)cn3)CC2)C1=O)Oc1cn[nH]c(=O)c1Br [Example 46B, 4-bromo-5-(((S)-1-(((R)-2-oxo-1-(1-(5-(trifluoromethyl)pyrazin-2-yl)piperidin-4-yl)pyrrolidin-3-yl)oxy)propan-2-yl)oxy)pyridazin-3(2H)-one]"
16,< 100,"C[C@@H](CO[C@@H]1CCN([C@H]2CCN(c3ncc(C(F)(F)F)cn3)C[C@H]2F)C1=O)Nc1cn[nH]c(=O)c1C(F)(F)F (single isomer, unassigned) [Example 39B]"
17,< 100,"COC[C@@H](CO[C@@H]1CCN(C2CCN(c3ncc(C)cn3)CC2)C1=O)Oc1cn[nH]c(=O)c1C(F)(F)F [Example 52B, 5-(((S)-1-methoxy-3-(((R)-1-(1-(5-methylpyrimidin-2-yl)piperidin-4-yl)-2-oxopyrrolidin-3-yl)oxy)propan-2-yl)oxy)-4-(trifluoromethyl)pyridazin-3(2H)-one]"
18,< 100,"C[C@@H](CO[C@@H]1CCN([C@H]2CCN(c3ncc(C(F)(F)F)cn3)C[C@H]2O)C1=O)Nc1cn[nH]c(=O)c1C(F)(F)F [Example 60, 5-(((S)-1-(((R)-1-((3R,4S)-3-hydroxy-1-(5-(trifluoromethyl)pyrimidin-2-yl)piperidin-4-yl)-2-oxopyrrolidin-3-yl)oxy)propan-2-yl)amino)-4-(trifluoromethyl)pyridazin-3(2H)-one]"
19,100 to 1000,"C[C@@H](CO[C@H]1CCN(C2CCN(c3ncc(C(F)F)cn3)CC2)C1=O)Nc1cn[nH]c(=O)c1C(F)(F)F [Example 15A, 5-(((S)-1-(((S)-1-(1-(5-(difluoromethyl)pyrimidin-2-yl)piperidin-4-yl)-2-oxopyrrolidin-3-yl)oxy)propan-2-yl)amino)-4-(trifluoromethyl)pyridazin-3(2H)-one]"
